How the values were obtained:
neurotensin receptors = settings: in vivo; cited from earlier work
[1] = guinea pig, in vivo

Compound	potency in inhibiting pain relative to neurotensin (neurotensin receptors)	duration of local anesthesia [1]
contulakin-G	significantly more potent than neurotensin	
CCCCN1CCCCC1C(=O)Nc1c(C)cccc1C (centres unmarked) [bupivacaine]		slightly longer duration thatn lidocaine

— patent US6727226B2 (priority 2000, dated 2004)
